Results taken from paper PMC12508063, “Chloroindazole based estrogen receptor β ligands with favorable pharmacokinetics promote functional remyelination and visual recovery” (Scientific Reports, 2025).
“And” between values parts separate entries of the source, which are not always exact repeats. Equal values may be shown once.

Columns and labels:
ERβ = biological target: T1, ERβ (Homo sapiens, UniProt Q92731); test: ER reporter gene assay in HEK 293 T cells (ER-luciferase reporter); type: cell-based; conditions: for Reporter gene assay raw data, ERb: ERb data block (head r19), 4 replicate columns; for ERb reporter gene assay raw data (response): four replicate columns per compound
T1 construct: expressed in transfected cells; host or cells: HEK 293 T cells

ERα = biological target: T2, ERα (Homo sapiens, UniProt P03372); test: as above; type: cell-based; conditions: for Reporter gene assay raw data, ERa: 4 replicate columns
T2 construct: expressed in transfected cells; host or cells: HEK 293 T cells
T2 sequence (P03372 1-595): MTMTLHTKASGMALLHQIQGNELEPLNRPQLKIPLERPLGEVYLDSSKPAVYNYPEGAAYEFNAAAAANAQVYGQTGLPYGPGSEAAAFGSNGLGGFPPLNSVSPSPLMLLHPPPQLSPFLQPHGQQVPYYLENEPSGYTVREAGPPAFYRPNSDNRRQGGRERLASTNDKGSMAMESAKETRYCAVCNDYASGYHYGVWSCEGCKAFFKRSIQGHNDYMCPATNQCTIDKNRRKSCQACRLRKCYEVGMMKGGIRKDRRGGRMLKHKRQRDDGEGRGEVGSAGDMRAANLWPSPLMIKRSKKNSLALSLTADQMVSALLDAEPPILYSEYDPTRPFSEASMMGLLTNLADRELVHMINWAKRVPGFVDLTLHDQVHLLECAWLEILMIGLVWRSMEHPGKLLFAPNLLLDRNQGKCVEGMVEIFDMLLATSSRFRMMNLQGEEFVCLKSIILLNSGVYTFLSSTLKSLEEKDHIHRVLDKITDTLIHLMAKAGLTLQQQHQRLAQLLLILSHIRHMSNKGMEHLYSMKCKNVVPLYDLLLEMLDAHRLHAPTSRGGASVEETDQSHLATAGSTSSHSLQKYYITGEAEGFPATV

T1 sequence (Q92731 whole entry, species assumed): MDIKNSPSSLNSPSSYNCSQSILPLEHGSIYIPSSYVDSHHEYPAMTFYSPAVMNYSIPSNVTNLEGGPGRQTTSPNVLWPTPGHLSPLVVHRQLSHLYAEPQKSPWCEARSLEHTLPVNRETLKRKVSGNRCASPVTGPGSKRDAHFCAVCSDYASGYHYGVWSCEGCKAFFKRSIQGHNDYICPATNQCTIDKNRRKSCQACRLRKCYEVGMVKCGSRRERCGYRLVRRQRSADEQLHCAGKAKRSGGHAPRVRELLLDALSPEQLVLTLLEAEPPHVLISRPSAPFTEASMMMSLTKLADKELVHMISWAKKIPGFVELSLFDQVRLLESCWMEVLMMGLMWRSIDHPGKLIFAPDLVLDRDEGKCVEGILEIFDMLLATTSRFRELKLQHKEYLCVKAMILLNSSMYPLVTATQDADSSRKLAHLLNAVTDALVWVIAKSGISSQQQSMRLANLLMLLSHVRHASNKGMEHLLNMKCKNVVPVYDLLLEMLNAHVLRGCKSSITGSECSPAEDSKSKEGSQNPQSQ

C[C@]12CC[C@@H]3c4ccc(O)cc4CC[C@H]3[C@@H]1CC[C@@H]2O [Compound E2, estradiol]
Reporter gene assay raw data, ERb (ERβ; Log M -6): 88.8232 and 101.64 and 110.514 and 90.7218
ERb reporter gene assay raw data (response) (ERβ; Log M -6): 84.0609 and 88.7479 and 111.697 and 94.4619
Reporter gene assay raw data, ERb (ERβ; Log M -6.47756): 97.0869 and 99.8524 and 105.457 and 96.3817
ERb reporter gene assay raw data (response) (ERβ; Log M -6.47756): 91.3063 and 103.043 and 96.9565 and 108.694
Reporter gene assay raw data, ERb (ERβ; Log M -6.95468): 101.657 and 108.929 and 91.071 and 98.3432
ERb reporter gene assay raw data (response) (ERβ; Log M -6.95468): 85.5094 and 93.8773 and 82.9145 and 86.4119
Reporter gene assay raw data, ERb (ERβ; Log M -7.4318): 88.9611 and 107.81 and 89.4793
ERb reporter gene assay raw data (response) (ERβ; Log M -7.4318): 92.1619 and 99.8727 and 93.6976 and 98.6683
Reporter gene assay raw data, ERb (ERβ; Log M -7.91009): 87.7241 and 103.45 and 96.1824 and 92.6694
ERb reporter gene assay raw data (response) (ERβ; Log M -7.91009): 89.9017 and 89.3359 and 90.9076 and 106.617
Reporter gene assay raw data, ERb (ERβ; Log M -8.3851): 90.4631 and 100.397 and 90.4263 and 91.0339
ERb reporter gene assay raw data (response) (ERβ; Log M -8.3851): 91.9536 and 86.2134 and 78.7089 and 97.5579
Reporter gene assay raw data, ERb (ERβ; Log M -8.86328): 79.9036 and 104.483 and 99.1546 and 93.2724
ERb reporter gene assay raw data (response) (ERβ; Log M -8.86328): 95.1963 and 89.1365 and 87.1229 and 89.1607
Reporter gene assay raw data, ERb (ERβ; Log M -9.34008): 95.3149 and 101.905 and 91.5426 and 83.1517
ERb reporter gene assay raw data (response) (ERβ; Log M -9.34008): 83.69 and 95.3591 and 88.894 and 92.378
Reporter gene assay raw data, ERb (ERβ; Log M -9.81816): 104.147 and 95.8332 and 93.5201 and 92.5995
ERb reporter gene assay raw data (response) (ERβ; Log M -9.81816): 83.8842 and 77.8861 and 83.3564 and 89.1956
Reporter gene assay raw data, ERb (ERβ; Log M -10.2941): 77.6845 and 76.952 and 81.0679 and 77.2912
ERb reporter gene assay raw data (response) (ERβ; Log M -10.2941): 80.3017 and 74.375 and 74.4575 and 76.8278
Reporter gene assay raw data, ERb (ERβ; Log M -10.7721): 31.1486 and 35.6178 and 35.7979 and 36.2215
ERb reporter gene assay raw data (response) (ERβ; Log M -10.7721): 27.7709 and 32.5606 and 30.8658
Reporter gene assay raw data, ERb (ERβ; Log M -11.248): 7.1742 and 11.1236 and 8.004 and 9.347
ERb reporter gene assay raw data (response) (ERβ; Log M -11.248): 5.759 and 5.232 and 4.796 and 6.634
ERb reporter gene assay raw data (response) (ERβ; Log M -13): -0.5566 and 0.8119 and -0.8119 and 0.5566

Oc1ccc([C@@H]2Oc3ccc(O)cc3[C@@H]3CCC[C@@H]32)cc1 [LY500307]
Reporter gene assay raw data, ERa (ERα; Log M -6, first ERa data block (head r2)): 95.3498 and 76.8258 and 78.8468 and 79.4968
Reporter gene assay raw data, ERa (ERα; Log M -6, second ERa data block (head r34)): 84.2897 and 88.4184 and 89.8518 and 82.7548
Reporter gene assay raw data, ERa (ERα; Log M -6.47756, first ERa data block (head r2)): 81.0788 and 76.9627 and 81.3158 and 77.2241
Reporter gene assay raw data, ERa (ERα; Log M -6.47756, second ERa data block (head r34)): 83.7373 and 79.8906 and 79.6354 and 82.4556
Reporter gene assay raw data, ERa (ERα; Log M -6.95468, first ERa data block (head r2)): 64.5612 and 69.8569 and 66.3267 and 71.602
Reporter gene assay raw data, ERa (ERα; Log M -6.95468, second ERa data block (head r34)): 71.7534 and 71.241 and 72.7885 and 70.2307
Reporter gene assay raw data, ERa (ERα; Log M -7.4318, first ERa data block (head r2)): 51.8548 and 63.5801 and 59.7283 and 55.8203
Reporter gene assay raw data, ERa (ERα; Log M -7.4318, second ERa data block (head r34)): 63.921 and 68.3671 and 59.0742 and 56.656
Reporter gene assay raw data, ERa (ERα; Log M -7.91009, first ERa data block (head r2)): 45.1889 and 57.478 and 50.9227 and 51.1094
Reporter gene assay raw data, ERa (ERα; Log M -7.91009, second ERa data block (head r34)): 50.9317 and 49.5895 and 46.336 and 52.0394
Reporter gene assay raw data, ERa (ERα; Log M -8.3851, first ERa data block (head r2)): 49.7552 and 47.0158 and 40.3598 and 42.6852
Reporter gene assay raw data, ERa (ERα; Log M -8.3851, second ERa data block (head r34)): 51.0127 and 45.6306 and 44.3415 and 46.4772
Reporter gene assay raw data, ERa (ERα; Log M -8.86328, first ERa data block (head r2)): 31.993 and 35.5083 and 37.6374 and 35.7027
Reporter gene assay raw data, ERa (ERα; Log M -8.86328, second ERa data block (head r34)): 42.4323 and 38.564 and 35.9099 and 35.545
Reporter gene assay raw data, ERa (ERα; Log M -9.34008, first ERa data block (head r2)): 17.3101 and 15.2621 and 18.8474 and 18.6811
Reporter gene assay raw data, ERa (ERα; Log M -9.34008, second ERa data block (head r34)): 21.5928 and 20.6886 and 16.8312 and 20.0407
Reporter gene assay raw data, ERa (ERα; Log M -9.81816, first ERa data block (head r2)): 8.154 and 4.486 and 4.8306 and 4.983
Reporter gene assay raw data, ERa (ERα; Log M -9.81816, second ERa data block (head r34)): 6.6406 and 6.967 and 4.962 and 7.591
Reporter gene assay raw data, ERa (ERα; Log M -10.2941, first ERa data block (head r2)): 3.132 and 9.724 and 4.561 and 11.8118
Reporter gene assay raw data, ERa (ERα; Log M -10.2941, second ERa data block (head r34)): 3.775 and 13.8366 and 4.292 and 12.8533
Reporter gene assay raw data, ERa (ERα; Log M -10.7721, first ERa data block (head r2)): 1.451 and 1.5656 and -0.4526 and 1.85
Reporter gene assay raw data, ERa (ERα; Log M -10.7721, second ERa data block (head r34)): -0.2019 and 1.235 and 0.142 and 1.333
Reporter gene assay raw data, ERa (ERα; Log M -11.248, first ERa data block (head r2)): -0.6879 and -0.2253 and -0.584 and 0.4876
Reporter gene assay raw data, ERa (ERα; Log M -11.248, second ERa data block (head r34)): -0.9111 and -0.3248 and 1.487 and 1.068
ERa reporter gene assay raw data (response) (ERα; Log M -13, four replicate columns per compound): 0.8253 and -0.8253 and 1.478 and -1.478
